Experimental data as given in publication PMC11024854 (Theranostics, 2024).
pKd: −log10 of the molar value.

What was measured:
HSP90α (HSP90AA1) = molecular target: T1, HSP90α (HSP90AA1) (Homo sapiens, UniProt P07900); assay: SPR (Biacore […], immobilized HSP90AA1); also C-terminal HSP90α:PPID AlphaLISA inhibition at […]; format: binding
T1 construct: recombinant human HSP90AA1 protein

HSP90α = molecular target: T2, HSP90α (Homo sapiens, UniProt P07900); assay: competitive binding assay against FITC-labeled geldanamycin ([…] compound)
T2 construct: gene HSP90AA1; purified recombinant HSP90α (N-terminal domain assay kit)

pKd (HSP90α (HSP90AA1))	Compound	competitive binding assay against FITC-labeled geldanamycin (1000 nM compound) (HSP90α)
4.01	COc1c(C(=O)Nc2ccc3c(C)nn(CCC4CCN(C)CC4)c3c2)ccc2c1C=CC(C)(C)O2 [HVH-2930]	
	CC(C)c1cc(C(=O)N2Cc3ccc(CN4CCN(C)CC4)cc3C2)c(O)cc1O [onalespib]	unlike the N-terminal HSP90 inhibitors, neither HVH-2930 nor novobiocin exhibited any binding activity to the N-terminal region of HSP90α
